Assay: Plasma lutein concentration in chickens fed lutein or preparation of lutein (HPLC)
Format: in vivo, chicken
Conditions: diet with 15 mg lutein/kg for 15 days
Protocol: Chickens (50), weighing 1.0±0.2 kg, were randomly divided into two treatments, with 25 chickens each. Chickens were individually housed in cages measuring 0.2×0.2 m, and were submitted to a lighting program of 16 h light/day. Chickens were kept under a temperature of 20±5° C. Feed and water were supplied ad libitum.
After two weeks of washout period, when the chickens were fed lutein or preparation of lutein with basal diet, two groups were fed the basal diets lutein or preparation of lutein for a period of 15 days. Lutein contents were determined using a HPLC method. The basal diet contained 0.5 mg lutein/kg. The two diets were formulated to contain the same level of 15 mg lutein/kg. All feeds were prepared every day.
Morning blood samples were taken on day 0, and days 3, 6, 12 for lutein analysis. The number of eggs laid by each chicken was counted during the experiment. Blood samples were obtained by puncture of the vena ulnaris. One milliliter of blood was sampled from each chicken. The plasma was separated by centrifugation. Plasma lutein concentrations have been detected. […]
A single gradient-type HPLC system was used for the parallel analysis of plasma concentration of lutein. The HPLC systems consisted of two solvent-delivery systems detected with a 436-nm and a 280-nm filter. The samples were analyzed by HPLC method. Lutein was quantified by determining the peak area at 445 nm. […]

SMILES: CC1=C[C@H](O)CC(C)(C)[C@H]1/C=C/C(C)=C/C=C/C(C)=C/C=C/C=C(C)/C=C/C=C(C)/C=C/C1=C(C)C[C@@H](O)CC1(C)C [Lutein, lutein]
- Plasma lutein concentration: 1.20 ± 0.10 μg lutein/ml

— US9622970B2, “Pharmaceutical composition containing lutein and antioxidant for treating and preventing human disease” (priority 2014, dated 2017)
